Source: ChEMBL document CHEMBL1135385, “New highly active taxoids from 9beta-dihydrobaccatin-9,10-acetals. Part 2” (Bioorg Med Chem Lett, 2002)
Values after ≈ are worked out from the molar mass of the structure shown.

Legend:
PC-12 = test: Concentration required to obtain half of the maximal inhibition for cell growth in human non-small cell lung cancer cell line(PC-12) was determined by using MTT assay when the cells were exposed to compound for 72 hr; settings: PC-12, Lung
PC-6 [1] = test: Concentration required to obtain half of the maximal inhibition for cell growth in human small cell lung cancer(PC-6) was determined by using MTT assay when the cells were exposed to compound for 72 hr; type: functional; settings: PC-6, Lung
PC-6 [2] = test: Concentration required to obtain half of the maximal inhibition for cell growth in vincristine-resistant cell line expressing P-glycoprotein (PC-6/VCR29-9) was determined by using MTT assay when the cells were exposed to compound for 72 hr; type: functional; settings: Homo sapiens, PC-6, 72 h
[3] = Solubility (JP2 at pH 6.8); type: physicochemical; settings: JP2, pH 6.8
[4] = Solubility (JP1 at pH 1.2); type: physicochemical; settings: JP1, pH 1.2

| Structure (SMILES) | GI50 (PC-12) | GI50 (PC-6 [1]) | GI50 (PC-6 [2]) | solubility [3] | solubility [4] |
| --- | --- | --- | --- | --- | --- |
| CC(=O)O[C@@]12CO[C@@H]1CC[C@@]1(C)[C@@H]3OC(C)(C)O[C@@H]3C3=C(C)[C@@H](OC(=O)[C@H](O)[C@@H](NC(=O)OC(C)(C)C)c4ccncc4)C[C@@](O)([C@@H](OC(=O)c4ccccc4)[C@@H]12)C3(C)C | 0.038 ng/mL (≈ 0.0455 nM) | 0.386 ng/mL (≈ 0.462 nM) | 3.84 ng/mL (≈ 4.6 nM) |  |  |
| CC(=O)O[C@@]12CO[C@@H]1C[C@H](O)[C@@]1(C)[C@@H]3OC(C)(C)O[C@@H]3C3=C(C)[C@@H](OC(=O)[C@H](O)[C@@H](NC(=O)OC(C)(C)C)c4ccncc4)C[C@@](O)([C@@H](OC(=O)c4ccccc4)[C@H]21)C3(C)C | 0.665 ng/mL (≈ 0.781 nM) | 0.38 ng/mL (≈ 0.447 nM) | 13.5 ng/mL (≈ 15.9 nM) | 57 µg/mL (≈ 67000 nM) | 333 µg/mL (≈ 391000 nM) |
| CC(=O)O[C@@]12CO[C@@H]1CC[C@@]1(C)[C@@H]3OC(C)(C)O[C@@H]3C3=C(C)[C@@H](OC(=O)[C@H](O)[C@@H](NC(=O)OC(C)(C)C)c4ccccn4)C[C@@](O)([C@@H](OC(=O)c4ccccc4)[C@@H]12)C3(C)C | 0.116 ng/mL (≈ 0.139 nM) | 0.145 ng/mL (≈ 0.174 nM) | 0.538 ng/mL (≈ 0.644 nM) |  |  |
| CO[C@H]1C[C@H]2OC[C@@]2(OC(C)=O)[C@H]2[C@H](OC(=O)c3ccccc3)[C@]3(O)C[C@H](OC(=O)[C@H](O)[C@@H](NC(=O)OC(C)(C)C)c4ccncc4)C(C)=C([C@H]4OC(C)(C)O[C@H]4[C@]12C)C3(C)C | 2.26 ng/mL (≈ 2.61 nM) | 0.229 ng/mL (≈ 0.265 nM) | 38.1 ng/mL (≈ 44 nM) |  |  |
| CC(=O)O[C@@]12CO[C@@H]1C[C@@H]1C[C@@]13[C@@H]1OC(C)(C)O[C@@H]1C1=C(C)[C@@H](OC(=O)[C@H](O)[C@@H](NC(=O)OC(C)(C)C)c4ccncc4)C[C@@](O)([C@@H](OC(=O)c4ccccc4)[C@H]23)C1(C)C | 33.7 ng/mL (≈ 40.5 nM) | 7.03 ng/mL (≈ 8.44 nM) | > 100 ng/mL |  |  |
| CC(=O)O[C@@]12CO[C@@H]1CC[C@@]1(C)[C@@H]3OC(C)(C)O[C@@H]3C3=C(C)[C@@H](OC(=O)[C@H](O)[C@@H](NC(=O)OC(C)(C)C)c4ccccc4)C[C@@](O)([C@@H](OC(=O)c4ccccc4)[C@@H]12)C3(C)C | 0.151 ng/mL (≈ 0.181 nM) | 0.332 ng/mL (≈ 0.398 nM) | 2.91 ng/mL (≈ 3.49 nM) |  |  |
| CC(=O)O[C@@]12CO[C@@H]1C[C@@H](F)[C@@]1(C)[C@@H]3OC(C)(C)O[C@@H]3C3=C(C)[C@@H](OC(=O)[C@H](O)[C@@H](NC(=O)OC(C)(C)C)c4ccncc4)C[C@@](O)([C@@H](OC(=O)c4ccccc4)[C@H]21)C3(C)C | 0.13 ng/mL (≈ 0.152 nM) | 0.266 ng/mL (≈ 0.312 nM) | 3.87 ng/mL (≈ 4.54 nM) |  |  |
| CC(=O)O[C@@]12CO[C@@H]1C[C@H](O)[C@@]1(C)C(=O)[C@H](O)C3=C(C)[C@@H](OC(=O)[C@H](O)[C@@H](NC(=O)OC(C)(C)C)c4ccccc4)C[C@@](O)([C@@H](OC(=O)c4ccccc4)[C@H]21)C3(C)C.O.O.O [DOCETAXEL] | 42.2 ng/mL | 1.48 ng/mL | 135 ng/mL | < 4 µg/mL | < 4 µg/mL |
| CC(=O)O[C@H]1C(=O)[C@@]2(C)[C@H]([C@H](OC(=O)c3ccccc3)[C@]3(O)C[C@H](OC(=O)[C@H](O)[C@@H](NC(=O)c4ccccc4)c4ccccc4)C(C)=C1C3(C)C)[C@]1(OC(C)=O)CO[C@@H]1C[C@@H]2O [PACLITAXEL] |  |  |  | < 4 µg/mL | < 4 µg/mL |
